Experiment [1] concerns BDF1 mice, P388 leukemia ip, median survival T/C. The experiment in a line: NCI In Vivo Anticancer Drug Screen. Data for tumor model P388 Leukemia (intraperitoneal) in B6D2F1 (BDF1) mice. The note with it: endpoint: median survival time, higher = longer survival. The essentials: (§1)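 Steps: implant the tumour, treat one group with compound and another with vehicle, record survival, then divide treated by control.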

For experiment [2], the system named is BDF1 mice, P388 leukemia ip. The description is as above. The note with it: endpoint: mean survival time, schedule: Q01DX009 (ip), higher = longer survival. Put shortly:
as §1

The mark [3] stands for this setting: dose: 25.0 mg/kg/injection, schedule: Q01DX009 (ip), vehicle: saline with Tween-80.
Where [4] appears, read: dose: 25.0 mg/kg/injection, schedule: Q04DX003 (ip), vehicle: saline with Tween-80.
The mark [5] stands for this setting: dose: 50.0 mg/kg/injection, schedule: Q01DX009 (ip), vehicle: saline with Tween-80.
The mark [6] stands for this setting: dose: 100.0 mg/kg/injection, schedule: Q01DX009 (ip), vehicle: saline with Tween-80.
The mark [7] stands for this setting: dose: 100.0 mg/kg/injection, schedule: Q01DX009 (ip), vehicle: Klucel (hydroxypropylcellulose) (HPC).
Where [8] appears, read: dose: 200.0 mg/kg/injection, schedule: Q01DX009 (ip), vehicle: Klucel (hydroxypropylcellulose) (HPC).
The mark [9] stands for this setting: dose: 400.0 mg/kg/injection, schedule: Q01DX009 (ip), vehicle: Klucel (hydroxypropylcellulose) (HPC).
Where [10] appears, read: dose: 50.0 mg/kg/injection, schedule: Q01DX009 (ip), vehicle: Klucel (hydroxypropylcellulose) (HPC).
The mark [11] stands for this setting: dose: 12.5 mg/kg/injection, schedule: Q01DX009 (ip), vehicle: saline.

In PubChem BioAssay AID328 (DTP/NCI, 2004) one finds T/C data, which are given here for 15 compounds.

Where “and” joins values, the source holds several entries; their conditions need not be identical. Equal entries are not always repeated. Inconclusive results and toxic doses are left out.

As to `CNC(C)(C)C(SSSC(c1ccc(Cl)cc1)C(C)(C)NC)c1ccc(Cl)cc1` (configuration not stated), the T/C in experiment [1] (dose: 12.5 mg/kg/injection, schedule: Q04DX003 (ip), vehicle: saline with Tween-80) is 101 % of control; in experiment [1] (setting [3]), 102 % of control; in experiment [1] (setting [4]), 100 % of control; in experiment [1] (setting [5]), 94 % of control; in experiment [1] (dose: 50.0 mg/kg/injection, schedule: Q04DX003 (ip), vehicle: saline with Tween-80), 95 % of control; in experiment [2] (dose: 6.25 mg/kg/injection, vehicle: saline with Tween-80), 95 % of control. Further, the T/C in experiment [2] (dose: 12.5 mg/kg/injection, vehicle: saline with Tween-80) is 114 % of control; in experiment [2] (dose: 25.0 mg/kg/injection, vehicle: saline with Tween-80) it was 103 % of control.

As to `CN(C)Cc1ccc(C(C)(C)C)cc1`, the T/C in experiment [1] (dose: 6.25 mg/kg/injection, schedule: Q04DX003 (ip), vehicle: water) was 98 % of control; in experiment [1] (dose: 12.5 mg/kg/injection, schedule: Q04DX003 (ip), vehicle: water), 112 % of control; in experiment [1] (dose: 25.0 mg/kg/injection, schedule: Q04DX003 (ip), vehicle: water), 106 % of control; in experiment [1] (dose: 50.0 mg/kg/injection, schedule: Q04DX003 (ip), vehicle: water), 106 % of control; in experiment [1] (dose: 100.0 mg/kg/injection, schedule: Q04DX003 (ip), vehicle: water) it was 99 % of control and 100 % of control; in experiment [2] (dose: 3.12 mg/kg/injection, vehicle: water) it was 108 % of control. In addition, the T/C in experiment [2] (dose: 6.25 mg/kg/injection, vehicle: water) is 100 % of control; in experiment [2] (dose: 12.5 mg/kg/injection, vehicle: water), 102 % of control; in experiment [2] (dose: 25.0 mg/kg/injection, vehicle: water), 96 % of control; in experiment [2] (dose: 100.0 mg/kg/injection, vehicle: water) it was 95 % of control.

With `CN(C)CCCNC(CC#N)CCC#N` (configuration not stated), the T/C in experiment [1] (dose: 50.0 mg/kg/injection, schedule: Q04DX003 (ip), vehicle: saline) is 100 % of control; in experiment [1] (dose: 100.0 mg/kg/injection, schedule: Q04DX003 (ip), vehicle: saline), 109 % of control; in experiment [1] (dose: 200.0 mg/kg/injection, schedule: Q04DX003 (ip), vehicle: saline), 100 % of control.

On to `CCOC(=O)C(CC(C)C)NC(=O)C(Cc1ccc(N(CCCl)CCCl)cc1)NC(C)=O` (configuration not stated), for which the T/C in experiment [1] (dose: 1.0 mg/kg/injection, schedule: Q01DX009 (ip), vehicle: other) was 104 % of control; in experiment [1] (dose: 2.0 mg/kg/injection, schedule: Q01DX009 (ip), vehicle: other), 109 % of control; in experiment [1] (dose: 8.0 mg/kg/injection, schedule: Q01DX009 (ip), vehicle: other) it was 163 % of control; in experiment [1] (dose: 32.0 mg/kg/injection, schedule: Q01DX009 (ip), vehicle: other) it was 163 % of control; in experiment [1] (dose: 64.0 mg/kg/injection, schedule: Q01DX009 (ip), vehicle: other) it was 172 % of control; in experiment [1] (dose: 128.0 mg/kg/injection, schedule: Q01DX009 (ip), vehicle: other), 195 % of control. Further, the T/C in experiment [1] (dose: 256.0 mg/kg/injection, schedule: Q01DX009 (ip), vehicle: other) is 89 % of control.

On to `O=C1c2c(O)ccc(O)c2C(=O)c2c(NCCOCCO)ccc(NCCOCCO)c21`, for which the T/C is 102 % of control in experiment [1] (dose: 25.0 mg/kg/injection, schedule: Q01DX005 (ip), vehicle: saline with Tween-80); 100 % of control in experiment [1] (dose: 50.0 mg/kg/injection, schedule: Q01DX005 (ip), vehicle: saline with Tween-80); 118 % of control in experiment [1] (dose: 100.0 mg/kg/injection, schedule: Q01DX005 (ip), vehicle: saline with Tween-80); 109 % of control in experiment [1] (dose: 200.0 mg/kg/injection, schedule: Q01DX005 (ip), vehicle: saline with Tween-80).

For the compound `CC(=O)OCC(Br)C(Br)COC(C)=O` (configuration not stated), the T/C is 109 % of control in experiment [1] (setting [6]); 109 % of control in experiment [1] (dose: 200.0 mg/kg/injection, schedule: Q01DX009 (ip), vehicle: saline with Tween-80); 109 % of control in experiment [1] (dose: 400.0 mg/kg/injection, schedule: Q01DX009 (ip), vehicle: saline with Tween-80).

On to `Cc1c2oc3c(C)ccc(C(=O)NCCc4ccco4)c3nc-2c(C(=O)NCCc2ccco2)c(N)c1=O`, for which the T/C in experiment [1] (dose: 100.0 mg/kg/injection, schedule: Q04DX003 (ip), vehicle: saline with Tween-80) was 102 % of control; in experiment [1] (dose: 200.0 mg/kg/injection, schedule: Q04DX003 (ip), vehicle: saline with Tween-80), 99 % of control; in experiment [1] (dose: 400.0 mg/kg/injection, schedule: Q04DX003 (ip), vehicle: saline with Tween-80) it was 96 % of control.

As to `CC(=O)c1ccccc1I`, the T/C is 100 % of control in experiment [1] (setting [7]); 104 % of control in experiment [1] (dose: 100.0 mg/kg/injection, schedule: Q04DX003 (ip), vehicle: Klucel (hydroxypropylcellulose) (HPC)); 95 % of control in experiment [1] (setting [8]); 100 % of control in experiment [1] (dose: 200.0 mg/kg/injection, schedule: Q04DX003 (ip), vehicle: Klucel (hydroxypropylcellulose) (HPC)); 100 % of control in experiment [1] (setting [9]); 95 % of control in experiment [1] (dose: 400.0 mg/kg/injection, schedule: Q04DX003 (ip), vehicle: Klucel (hydroxypropylcellulose) (HPC)).

With `COc1ccc(CN(CC(=O)O)S(C)(=O)=O)cc1`, the T/C in experiment [1] (dose: 100.0 mg/kg/injection, schedule: Q04DX003 (ip), vehicle: other) was 103 % of control; in experiment [1] (dose: 200.0 mg/kg/injection, schedule: Q04DX003 (ip), vehicle: other), 100 % of control; in experiment [1] (dose: 400.0 mg/kg/injection, schedule: Q04DX003 (ip), vehicle: other), 109 % of control.

As to `O=C(Nc1cc(Cl)ccc1Cl)O/N=C/c1ccncc1`, the T/C is 106 % of control in experiment [1] (dose: 12.5 mg/kg/injection, schedule: Q01DX009 (ip), vehicle: saline with Tween-80); 90 % of control in experiment [1] (setting [3]); 96 % of control in experiment [1] (setting [5]).

As for `O=NN(CCCl)C(=O)Nc1c[nH]c2ccccc12`, the T/C in experiment [1] (setting [10]) is 92 % of control; in experiment [1] (setting [7]), 107 % of control; in experiment [1] (setting [8]), 108 % of control; in experiment [1] (setting [9]), 117 % of control.

On to `OC1CCCCCCCCC1Cl` (configuration not stated), for which the T/C in experiment [1] (setting [3]) was 104 % of control; in experiment [1] (setting [5]), 109 % of control; in experiment [1] (setting [6]), 100 % of control.

With `ClCC#Cc1ccccc1`, the T/C in experiment [1] (dose: 12.5 mg/kg/injection, schedule: Q01DX009 (ip), vehicle: Klucel (hydroxypropylcellulose) (HPC)) was 109 % of control; in experiment [1] (dose: 25.0 mg/kg/injection, schedule: Q01DX009 (ip), vehicle: Klucel (hydroxypropylcellulose) (HPC)), 86 % of control; in experiment [1] (setting [10]) it was 100 % of control.

Turning to `CC(C)CCCC(C)C1CCC2C3CC=C4CC([S+](C)C)CCC4(C)C3CCC12C` (configuration not stated), the T/C in experiment [1] (setting [11]) was 109 % of control; in experiment [1] (dose: 25.0 mg/kg/injection, schedule: Q01DX009 (ip), vehicle: saline), 86 % of control.

For the compound `Cc1c(CNc2ccc(C(=O)NC(CC(=O)O)C(=O)O)cc2)ccc2nc(N)nc(N)c12` (configuration not stated), the T/C in experiment [1] (dose: 6.25 mg/kg/injection, schedule: Q01DX009 (ip), vehicle: saline) is 100 % of control; in experiment [1] (setting [11]), 90 % of control; in experiment [1] (dose: 16.5 mg/kg/injection, schedule: Q04DX003 (ip), vehicle: saline with Tween-80), 254 % of control; in experiment [1] (setting [4]) it was 272 % of control; in experiment [1] (dose: 37.5 mg/kg/injection, schedule: Q04DX003 (ip), vehicle: saline with Tween-80), 104 % of control.
